Laboratory results published in US8007782B2, “Combination bacteriolytic therapy for the treatment of tumors” (priority 2003, dated 2011).
Where a SMILES comes first, the peptide text is derived from it. [ ]: non-standard residue; d: D form. The star is where a group is joined. Dolaproine = CO[C@@H]([C@@H]1CCCN1)[C@@H](C)C(=O)O; Dil = CC[C@H](C)[C@H](NC)[C@@H](CC(=O)O)OC; NMe2Val = CC(C)[C@@H](C(=O)*)N(C)C

Key:
[1] = system: HCT116 human colorectal cancer cells; assay: Tumorigenicity assay, HCT116 xenografts in nude mice; type: in vivo; conditions: for Effect with C. novyi-NT / Effect alone: nude mice; for Effect alone: agent alone
Excerpt: (§1) All animal protocols were designed in accordance with the Guide for the Care and Use of Laboratory Animals (NIH Publication 86-23) and were approved by the Johns Hopkins University Institutional Animal Care and Use Committee. Six to eight week old mice were implanted subcutaneously on one flank with 3 to 6 million cancer cells. Establishment of tumors of 150 to 500 mm3 took 8 to 21 days, depending on the cell type. C. novyi-NT spores (300×106) and anti-microtubule agents were generally administered by a single intravenous injection through the tail vein in a total volume of 300 to 500 ul phosphate-buffered saline (PBS). Quantitative assessment of tumor growth was performed by measuring subcutaneous tumor grafts (major and minor axis) using electronic calipers. Tumor volume was calculated using the equation: length×width2×0.5. Progression free survival was defined as the length of time following treatment before any increase in tumor volume was observed. Mice were considered “cured” if no tumor was evident three months after treatment. Animals were weighed at least twice a week and carefully observed for signs of toxicity every day for the first week following treatment and then twice a week thereafter. At least five mice were used for each treatment arm described in the Experimental Results.
The timing, route, and dose of agents are critical for the success of any experimental therapy. When two agents are combined, the number of variables that must be tested increases exponentially. To simplify interpretation of the comparisons between various anti-microtubule agents, pilot studies with representative drugs were performed.
Eighteen agents known to interact with microtubules were each tested in this manner in nude mice harboring xenografts of HCT116 human colorectal cancer cells. At least five mice harboring tumors of 150 to 500 mm3 in size were used for each experimental arm. Two classes of responses were noted. One type of response was characterized by a rapid hemorrhagic necrosis, observed only with agents that inhibited microtubule […] (FIG. 1A, B). The other type of response was characterized by a slow regression, observed with agents that stabilized microtubules (FIG. 2A, B).

[2] = system: HCT116, HuCC-T1, HT-29, SW480, B16 and DLD-1 tumors; assay: Low dose HTI-286 and L-NNA on various xenografts (FIG. 10); type: in vivo, mice; conditions: HTI-286 1 mg/kg without L-NNA; L-NNA 10 mg/kg without HTI-286
Excerpt: FIG. 10A-10F Quantification of the effects of C. novyi-NT plus low doses of HTI-286 and L-NNA on various xenografts (HCT116, HuCC-T1, HT-29, SW480, B16, and DLD-1, respectively).
[…] […] The p-values are based on comparisons between L-NNA+HTI-286 and L-NNA+HTI-286+C. novyi-NT spores. The p-value is indicated only when the result was statistically significant.
All animal protocols were designed in accordance with the Guide for the Care and Use of Laboratory Animals (NIH Publication 86-23) and were approved by the Johns Hopkins University Institutional Animal Care and Use Committee. Six to eight week old mice were implanted subcutaneously on one flank with 3 to 6 million cancer cells. Establishment of tumors of 150 to 500 mm3 took 8 to 21 days, depending on the cell type. C. novyi-NT spores (300×106) and anti-microtubule agents were generally administered by a single intravenous injection through the tail vein in a total volume of 300 to 500 ul phosphate-buffered saline (PBS). Quantitative assessment of tumor growth was performed by measuring subcutaneous tumor grafts (major and minor axis) using electronic calipers. Tumor volume was calculated using the equation: length×width2×0.5. Progression free survival was defined as the length of time following treatment before any increase in tumor volume was observed. Mice were considered “cured” if no tumor was evident three months after treatment. […]

[3] = Weight loss after COBALT; type: in vivo, nude mice; conditions: drug dose 24.0 mg/kg; maximum average weight loss relative to weight one day prior to treatment; HCT116 xenografts
Excerpt: as §1
(§2) This toxicity was observed only when the combination of C. novyi-NT spores and the drugs was administered and not with either the bacteria or the drugs alone. […] Though major tumor regressions were common, few mice died as a result of therapy (Table 2) No deaths occurred after treatment with the microtubule stabilizers plus C. novyi-NT, while 4% to 8% of mice treated with microtubule destabilizers plus C. novyi-NT died. The only other toxicity observed was transient weight loss (Table 3). Mice treated with the drugs alone lost ˜5 to 10% of their body weight within 7 days, while weight loss after treatment with C. novyi-NT plus these drugs varied from 8% to 18%. All weights recovered to pre-treatment levels within two weeks.

[4] = Mortality following COBALT; type: in vivo, nude mice; conditions: deaths within one week, pooled xenograft models
Excerpt: as §1, §2

[5] = 15 mg/kg × 1 (iv) with 3×108 C. novyi-NT spores iv
[6] = 5 mg/kg × 1 (ip) with 3×108 C. novyi-NT spores iv
[7] = 10 mg/kg × 1 (ip) with 3×108 C. novyi-NT spores iv
[8] = 20 mg/kg × 1 (iv) with 3×108 C. novyi-NT spores iv

C=CC=CC(C)C(OC(N)=O)C(C)C(O)C(C)CC=CC(C)C(O)C(C)C=CC(O)CC1OC(=O)C(C)C(O)C1C (single isomer, unassigned; (+)) [(+)-14-normethyldiscodermolide]
Effect with C. novyi-NT [1, 5]: +
Effect alone ([1]; 15 mg/kg × 1 (iv)): +

O=C(Nc1ccncc1)C(=O)c1cn(Cc2ccc(Cl)cc2)c2ccccc12 [D-24851]
Effect with C. novyi-NT ([1]; 25 mg/kg × 1 (ip) with 3×108 C. novyi-NT spores iv): +
Effect with C. novyi-NT ([1]; 100 mg/kg × 1 (ip) with 3×108 C. novyi-NT spores iv): +
Effect alone ([1]; 25 mg/kg × 1 (ip)): 0
Effect alone ([1]; 100 mg/kg × 1 (ip)): 0

NC(=NCCC[C@H](N)C(=O)O)N[N+](=O)[O-] [L-NNA]
effect of L-NNA added to C. novyi-NT alone or high doses of HTI-286 plus C. novyi-NT [1]: added little
effect of L-NNA on responses to low doses of HTI-286 ([1]; L-NNA 10 mg/kg): significantly enhanced
effects on tumor growth when administered without the other agent [2]: no significant effects on tumor growth

CC[C@H](C)[C@@H]([C@@H](CC(=O)N1CCC[C@H]1[C@H](OC)[C@@H](C)C(=O)NCCc1ccccc1)OC)N(C)C(=O)[C@@H](NC(=O)[C@H](C(C)C)N(C)C)C(C)C [auristatin PE]
Effect with C. novyi-NT ([1]; 2 (2.0) mg/kg × 1 (iv) with 3×108 C. novyi-NT spores iv): +
Effect alone ([1]; 2 (2.0) mg/kg × 1 (iv)): 0

CC[C@H](C)[C@@H]([C@@H](CC(=O)N1CCC[C@H]1[C@H](OC)[C@@H](C)C(=O)N[C@@H](Cc1ccccc1)C(=O)OC)OC)N(C)C(=O)[C@@H](NC(=O)[C@H](C(C)C)N(C)C)C(C)C [auristatin PHE] (NMe2Val-V[Dil][Dolaproine]F-OMe)
Effect with C. novyi-NT ([1]; 0.2 mg/kg × 1 (iv) with 3×108 C. novyi-NT spores iv): +
Effect alone ([1]; 0.2 mg/kg × 1 (iv)): 0

COc1cc2c(c(OC)c1OC)-c1ccc(OC)c(=O)cc1[C@@H](NC(C)=O)CC2 [colchicine]
Effect with C. novyi-NT [1, 6]: +
Effect with C. novyi-NT [1, 7]: +
Effect with C. novyi-NT ([1]; 20 mg/kg × 1 (ip) with 3×108 C. novyi-NT spores iv): ++ (10% to 50% shrinkage in tumor volume relative to pre-treatment size)
Effect alone ([1]; 5 mg/kg × 1 (ip)): +
Effect alone ([1]; 10 mg/kg × 1 (ip)): +
Effect alone ([1]; 20 mg/kg × 1 (ip)): ++ (10% to 50% shrinkage in tumor volume relative to pre-treatment size)

COc1ccc(/C=C\c2cc(OC)c(OC)c(OC)c2)cc1OP(=O)(O)O [combretastatin A4P]
Effect with C. novyi-NT ([1]; 50 mg/kg × 1 (ip) with 3×108 C. novyi-NT spores iv): +
Effect with C. novyi-NT ([1]; 200 mg/kg × 1 (ip) with 3×108 C. novyi-NT spores iv): +
Effect alone ([1]; 50 mg/kg × 1 (ip)): 0
Effect alone ([1]; 200 mg/kg × 1 (ip)): +

C=C/C=C\[C@H](C)[C@H](OC(N)=O)[C@@H](C)[C@H](O)[C@@H](C)C/C(C)=C\[C@H](C)[C@@H](O)[C@@H](C)/C=C\[C@@H](O)C[C@@H]1OC(=O)[C@H](C)[C@@H](O)[C@H]1C [discodermolide]
Effect with C. novyi-NT [1, 5]: ++++ (>20% cures)
Effect with C. novyi-NT [1, 8]: ++++ (>20% cures)
Effect alone ([1]; 15 mg/kg × 1 (iv)): ++ (10% to 50% shrinkage in tumor volume relative to pre-treatment size)
Effect alone ([1]; 20 mg/kg × 1 (iv)): ++ (10% to 50% shrinkage in tumor volume relative to pre-treatment size)

CC[C@H](C)[C@@H]([C@@H](CC(=O)N1CCC[C@H]1[C@H](OC)[C@@H](C)C(=O)N[C@@H](Cc1ccccc1)c1nccs1)OC)N(C)C(=O)[C@@H](NC(=O)[C@H](C(C)C)N(C)C)C(C)C [dolastatin 10]
Effect with C. novyi-NT ([1]; 0.30 mg/kg × 1 (iv) with 3×108 C. novyi-NT spores iv): +++ (>50% shrinkage in tumor volume relative to pre-treatment size)
Effect with C. novyi-NT ([1]; 0.45 mg/kg × 1 (iv) with 3×108 C. novyi-NT spores iv): +++ (>50% shrinkage in tumor volume relative to pre-treatment size)
Effect alone ([1]; 0.30 mg/kg × 1 (iv)): 0
Effect alone ([1]; 0.45 mg/kg × 1 (iv)): 0

C/C(=C\c1csc(C)n1)[C@@H]1C[C@@H]2O[C@]2(C)CCC[C@H](C)[C@H](O)[C@@H](C)C(=O)C(C)(C)[C@@H](O)CC(=O)O1 [epothilone B]
Effect with C. novyi-NT ([1]; 25 mg/kg QD × 4 (ip) with 3×108 C. novyi-NT spores): +

COc1ccc2c(c1OC)C(=O)O[C@@H]2[C@H]1c2c(cc3c(c2OC)OCO3)CCN1C [noscapine]
Effect with C. novyi-NT ([1]; 50 mg/kg × 1 (iv) with 3×108 C. novyi-NT spores iv): +
Effect with C. novyi-NT ([1]; 70 mg/kg × 1 (iv) with 3×108 C. novyi-NT spores iv): +
Effect alone ([1]; 50 mg/kg × 1 (iv)): 0
Effect alone ([1]; 70 mg/kg × 1 (iv)): 0

CC(=O)O[C@H]1C(=O)[C@@]2(C)[C@H]([C@H](OC(=O)c3ccccc3)[C@]3(O)C[C@H](OC(=O)[C@H](O)[C@@H](NC(=O)c4ccccc4)c4ccccc4)C(C)=C1C3(C)C)[C@]1(OC(C)=O)CO[C@@H]1C[C@@H]2O [paclitaxel]
Effect with C. novyi-NT [1, 5]: 0
Effect with C. novyi-NT ([1]; 30 mg/kg × 1 (iv) with 3×108 C. novyi-NT spores iv): +
Effect alone ([1]; 15 mg/kg × 1 (iv)): 0
Effect alone ([1]; 30 mg/kg × 1 (iv)): 0

CC[C@]1(O)C[C@@H]2CN(CCc3c([nH]c4ccccc34)[C@@](C(=O)OC)(c3cc4c(cc3OC)N(C)[C@H]3[C@@](O)(C(=O)OC)[C@H](OC(C)=O)[C@]5(CC)C=CCN6CC[C@]43[C@@H]65)C2)C1 [vinblastine]
Effect with C. novyi-NT [1, 6]: 0
Effect with C. novyi-NT [1, 7]: +
Effect alone ([1]; 5 mg/kg × 1 (ip)): 0
Effect alone ([1]; 10 mg/kg × 1 (ip)): +

CC[C@]1(O)C[C@H]2CN(CCc3c([nH]c4ccccc34)[C@@](C(=O)OC)(c3cc4c(cc3OC)N(C=O)[C@H]3[C@@](O)(C(=O)OC)[C@H](OC(C)=O)[C@]5(CC)C=CCN6CC[C@]43[C@@H]65)C2)C1 [vincristine]
Effect with C. novyi-NT [1, 6]: 0
Effect with C. novyi-NT [1, 7]: +
Effect alone ([1]; 5 mg/kg × 1 (ip)): 0
Effect alone ([1]; 10 mg/kg × 1 (ip)): 0

CCC1=C[C@@H]2CN(C1)Cc1c([nH]c3ccccc13)[C@@](C(=O)OC)(c1cc3c(cc1OC)N(C)[C@H]1[C@@](O)(C(=O)OC)[C@H](OC(C)=O)[C@]4(CC)C=CCN5CC[C@]31[C@@H]54)C2 [vinorelbine]
Weight Loss (%) [3]: 8.3%
# dead (treatment-related deaths) ([4]; drug dose 16.0 mg/kg): 0
# dead (treatment-related deaths) ([4]; drug dose 20.0 mg/kg): 0
# dead (treatment-related deaths) ([4]; drug dose 24.0 mg/kg): 0
Effect with C. novyi-NT ([1]; 16 mg/kg × 1 (iv) with 3×108 C. novyi-NT spores iv): ++ (10% to 50% shrinkage in tumor volume relative to pre-treatment size)
Effect with C. novyi-NT [1, 8]: +++ (>50% shrinkage in tumor volume relative to pre-treatment size)
Effect with C. novyi-NT ([1]; 24 mg/kg × 1 (iv) with 3×108 C. novyi-NT spores iv): +++ (>50% shrinkage in tumor volume relative to pre-treatment size)
Effect alone ([1]; 16 mg/kg × 1 (iv)): +
Effect alone ([1]; 20 mg/kg × 1 (iv)): +
Effect alone ([1]; 24 mg/kg × 1 (iv)): +

arsenic trioxide
Effect with C. novyi-NT [1, 7]: +
Effect alone ([1]; 10 mg/kg × 1 (ip)): 0
